Earlier results in patent US20240002325A1, “OXYLIPINS, PROCESSES FOR MAKING THE SAME, AND METHODS FOR USING THE SAME” (THE TRUSTEES OF INDIANA UNIVERSITY, priority 2020, published 2024).

Columns and labels:
[1] = test system: bacterial biofilms; conditions: in vitro; has been reported
[2] = test system: flagellum-driven swimming and swarming motilities; conditions: has been reported

## CCCCCCCCC(O)/C=C/CCCCCCC(=O)O (centres unmarked) [Compound 10-HOME, (E)-10-hydroxyoctadec-8-enoic acid]
[1]
  effect on formation of bacterial biofilms: stimulate the formation of bacterial biofilms in vitro
[2]
  effect on flagellum-driven swimming and swarming motilities: inhibit flagellum-driven swimming and swarming motilities
